Source: patent US9321773B2, “Compounds” (Respivert Ltd, priority 2009, dated 2016)
pIC50: −log10 of the molar value. Like-named read-outs stand apart in the source and are kept apart here.

Assays:
recombinant PI3 kinase α = recombinant PI3 kinase α (Homo sapiens (Human), UniProt P42336); assay: Enzyme Inhibition Assay (HTRF PI3K enzyme assay, TR-FRET); assay type: biochemical; conditions: for pIC50: activity range, read-out: PI3 Kinase Inhibition IC50 values at stated Isozyme α
Excerpt: (§1) PI3 kinases catalyse the phosphorylation of phosphatidylinositol 4,5-biphosphate (PIP2) to phosphatidylinositol 3,4,5-triphosphate (PIP3) in the presence of ATP and Mg^2+ ions. The PIP3 product can be detected by displacement of biotin-PIP3 from energy transfer complexes consisting of europium labelled anti-GST monoclonal antibody, a GST-tagged Pleckstrin homology (PH) domain, biotinylated PIP3 and streptavidin-allophycocyanin (APC) by the time-resolved fluorescence resonance energy transfer (TR-FRET) (HTRF® PI3K enzyme assay, Millipore). […] The PIP3 product formed by PI3K activity displaces biotin-PIP3 from the complex and results in a loss of energy transfer (decreasing signal).
(§2) The compound to be tested was added, at the desired final concentrations, to a mixture of PIP2 substrate and recombinant PI3 kinase α, δ or γ enzymes (Millipore), and the mixture incubated for 2 hr at RT. […] A stopping solution containing biotinylated PIP3 and the detection mix containing the GST tagged GRP1 pleckstrin homology (PH) domain and fluorophores were then added and the mixture was incubated at RT for 15-18 hr, prior to detection in a fluorescence microplate reader (Varioskan® Flash, ThermoFisher Scientific).

recombinant PI3 kinase γ = recombinant PI3 kinase γ (Homo sapiens (Human), UniProt P48736); assay: as above; assay type: biochemical; conditions: for pIC50: activity range, read-out: PI3 Kinase Inhibition IC50 values at stated Isozyme γ
Chain of recombinant PI3 kinase γ (P48736 whole entry): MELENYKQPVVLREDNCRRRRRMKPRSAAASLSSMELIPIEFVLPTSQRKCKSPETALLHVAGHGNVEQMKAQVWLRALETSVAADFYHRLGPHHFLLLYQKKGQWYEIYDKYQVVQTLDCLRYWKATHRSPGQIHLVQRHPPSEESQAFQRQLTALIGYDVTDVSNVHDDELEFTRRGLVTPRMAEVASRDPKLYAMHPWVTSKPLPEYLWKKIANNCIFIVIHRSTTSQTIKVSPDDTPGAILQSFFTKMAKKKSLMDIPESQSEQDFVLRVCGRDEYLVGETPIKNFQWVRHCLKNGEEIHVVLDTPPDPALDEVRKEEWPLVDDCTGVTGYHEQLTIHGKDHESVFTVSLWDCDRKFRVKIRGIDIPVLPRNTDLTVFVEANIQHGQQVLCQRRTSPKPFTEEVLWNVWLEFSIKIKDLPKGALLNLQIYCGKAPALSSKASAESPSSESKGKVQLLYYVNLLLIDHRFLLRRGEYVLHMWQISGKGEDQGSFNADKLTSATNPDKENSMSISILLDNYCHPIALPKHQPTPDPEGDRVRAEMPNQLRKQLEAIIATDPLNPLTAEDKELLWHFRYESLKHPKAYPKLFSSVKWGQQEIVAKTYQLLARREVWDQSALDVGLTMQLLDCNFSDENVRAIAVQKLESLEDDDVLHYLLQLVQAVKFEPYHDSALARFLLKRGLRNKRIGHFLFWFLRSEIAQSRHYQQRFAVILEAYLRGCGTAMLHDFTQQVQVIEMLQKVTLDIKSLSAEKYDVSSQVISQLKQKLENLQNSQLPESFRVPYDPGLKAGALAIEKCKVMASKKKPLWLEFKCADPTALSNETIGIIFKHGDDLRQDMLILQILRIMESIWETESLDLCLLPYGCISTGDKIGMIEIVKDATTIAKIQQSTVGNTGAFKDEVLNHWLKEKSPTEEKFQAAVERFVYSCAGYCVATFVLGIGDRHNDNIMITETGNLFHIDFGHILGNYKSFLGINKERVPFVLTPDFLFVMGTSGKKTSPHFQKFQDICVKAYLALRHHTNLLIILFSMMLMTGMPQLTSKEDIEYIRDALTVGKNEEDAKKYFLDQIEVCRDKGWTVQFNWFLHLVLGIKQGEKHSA
Excerpt: as §1, §2

recombinant PI3 kinase δ = recombinant PI3 kinase δ (Homo sapiens (Human), UniProt O00329); assay: as above; assay type: biochemical; conditions: for pIC50: activity range, read-out: PI3 Kinase Inhibition IC50 values at stated Isozyme δ
Chain of recombinant PI3 kinase δ (O00329 whole entry): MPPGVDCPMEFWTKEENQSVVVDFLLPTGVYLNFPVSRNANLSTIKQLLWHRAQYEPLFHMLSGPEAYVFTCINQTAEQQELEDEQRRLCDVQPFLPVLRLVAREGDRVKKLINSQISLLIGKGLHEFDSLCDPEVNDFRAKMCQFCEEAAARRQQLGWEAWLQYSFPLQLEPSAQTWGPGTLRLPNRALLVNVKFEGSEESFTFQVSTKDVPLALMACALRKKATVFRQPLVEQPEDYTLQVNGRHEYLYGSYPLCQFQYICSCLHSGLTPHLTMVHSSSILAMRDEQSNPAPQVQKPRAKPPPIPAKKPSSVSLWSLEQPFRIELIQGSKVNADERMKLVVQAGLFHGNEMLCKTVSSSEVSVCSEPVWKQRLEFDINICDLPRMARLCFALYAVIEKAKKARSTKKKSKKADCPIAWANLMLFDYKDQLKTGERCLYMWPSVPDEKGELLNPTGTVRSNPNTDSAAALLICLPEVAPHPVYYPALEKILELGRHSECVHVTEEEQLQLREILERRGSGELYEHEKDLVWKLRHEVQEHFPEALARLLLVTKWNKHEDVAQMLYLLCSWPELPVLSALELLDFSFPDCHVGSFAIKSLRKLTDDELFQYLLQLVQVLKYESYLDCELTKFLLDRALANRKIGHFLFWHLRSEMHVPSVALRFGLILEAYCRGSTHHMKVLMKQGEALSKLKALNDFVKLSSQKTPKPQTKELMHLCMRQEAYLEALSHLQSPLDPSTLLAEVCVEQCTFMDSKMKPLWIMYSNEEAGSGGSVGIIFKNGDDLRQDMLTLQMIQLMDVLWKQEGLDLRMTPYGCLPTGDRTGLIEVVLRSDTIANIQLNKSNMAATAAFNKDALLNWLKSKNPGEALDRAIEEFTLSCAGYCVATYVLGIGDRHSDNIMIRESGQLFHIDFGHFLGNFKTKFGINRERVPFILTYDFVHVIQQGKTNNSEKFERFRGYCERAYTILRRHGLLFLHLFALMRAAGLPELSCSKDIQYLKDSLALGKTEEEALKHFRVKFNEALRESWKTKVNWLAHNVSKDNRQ
Chain of recombinant PI3 kinase δ (P27986 whole entry partner): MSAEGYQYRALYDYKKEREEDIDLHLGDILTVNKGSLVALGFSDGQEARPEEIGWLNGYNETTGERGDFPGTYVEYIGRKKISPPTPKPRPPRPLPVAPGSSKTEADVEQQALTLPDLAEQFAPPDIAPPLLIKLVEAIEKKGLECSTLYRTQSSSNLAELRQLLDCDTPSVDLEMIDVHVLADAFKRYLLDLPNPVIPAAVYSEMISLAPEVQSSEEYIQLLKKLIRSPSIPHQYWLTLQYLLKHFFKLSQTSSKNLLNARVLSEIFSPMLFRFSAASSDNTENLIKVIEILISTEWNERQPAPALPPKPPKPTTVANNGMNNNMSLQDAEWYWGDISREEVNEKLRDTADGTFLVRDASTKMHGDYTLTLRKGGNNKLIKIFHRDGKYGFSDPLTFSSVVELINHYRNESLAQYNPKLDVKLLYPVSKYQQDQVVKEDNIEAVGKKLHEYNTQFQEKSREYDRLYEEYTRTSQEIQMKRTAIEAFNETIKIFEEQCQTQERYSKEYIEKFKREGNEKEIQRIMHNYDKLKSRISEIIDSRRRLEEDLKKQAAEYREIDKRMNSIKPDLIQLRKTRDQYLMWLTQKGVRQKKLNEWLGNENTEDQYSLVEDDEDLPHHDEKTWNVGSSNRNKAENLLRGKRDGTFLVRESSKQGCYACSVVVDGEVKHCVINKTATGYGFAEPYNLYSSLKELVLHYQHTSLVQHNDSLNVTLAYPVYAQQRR
Excerpt: as §1, §2

[1] = test system: H2O2 induced pAkt in D-U937 cells; assay: PI3Kδ Cell Based Assay (H2O2 induced pAkt); conditions: Homo sapiens, dU937; for pIC50: activity range, D-U937 cells, read-out: Cellular Activity IC50 values (H2O2 induced pAkt D-U937 Cells)
Description: As a means of assessing PI3K 6 activation in response to stimuli, the phosphorylation status of the protein, Akt, a downstream product of PI3K6, signaling was determined. Human monocytic cells (U937 cells), were differentiated to macrophage-type cells by incubation with phorbol myristate acetate (PMA; 100 ng/mL) for 48 to 72 hr. […] The cells were washed with buffer (PBS containing 0.1% Triton X-100) and were incubated with blocking solution (1% BSA in PBS) for 1 hr and were then re-washed with buffer and incubated overnight with either anti-pAkt antibody or anti-pan-Akt antibody (both from Cell Signaling Technology). […] This reaction was stopped by addition of 100 μL of 1N H2SO4 solution. […] The ratio of pAkt signal to total Akt signal was used to quantitate the extent of PI3K δ activation. […] The IC50 values were calculated from the concentration-response curves generated by the serial dilutions of the test compounds (Table 3 and Table 4).

[2] = test system: PMA-differentiated U937 cells; assay: MTT Assay (cell viability); assay type: cell-based, Human; conditions: percentage loss of cell viability; for Cell Viability MTT Assay in D-U937 cells at 4 hr: 4 hr in 5% FCS; for Cell Viability MTT Assay in D-U937 cells at 24 hr: 24 hr in 10% FCS
Description: PMA-differentiated U937 cells were pre-incubated with compound for 4 hr in 5% FCS or 10% FCS for 24 hr. The supernatant was replaced with 200 μL of new media and 10 μL of MTT stock solution (5 mg/ml) added to each well. After 1 hr incubation, the media were removed, 200 μL of DMSO added to each well and the plates were shaken lightly for 1 hr prior to reading the absorbance at 550 nm. The percentage loss of cell viability was calculated for each well relative to vehicle (0.5% DMSO)-treatment (Table 3).

Chain of recombinant PI3 kinase α (P42336 whole entry): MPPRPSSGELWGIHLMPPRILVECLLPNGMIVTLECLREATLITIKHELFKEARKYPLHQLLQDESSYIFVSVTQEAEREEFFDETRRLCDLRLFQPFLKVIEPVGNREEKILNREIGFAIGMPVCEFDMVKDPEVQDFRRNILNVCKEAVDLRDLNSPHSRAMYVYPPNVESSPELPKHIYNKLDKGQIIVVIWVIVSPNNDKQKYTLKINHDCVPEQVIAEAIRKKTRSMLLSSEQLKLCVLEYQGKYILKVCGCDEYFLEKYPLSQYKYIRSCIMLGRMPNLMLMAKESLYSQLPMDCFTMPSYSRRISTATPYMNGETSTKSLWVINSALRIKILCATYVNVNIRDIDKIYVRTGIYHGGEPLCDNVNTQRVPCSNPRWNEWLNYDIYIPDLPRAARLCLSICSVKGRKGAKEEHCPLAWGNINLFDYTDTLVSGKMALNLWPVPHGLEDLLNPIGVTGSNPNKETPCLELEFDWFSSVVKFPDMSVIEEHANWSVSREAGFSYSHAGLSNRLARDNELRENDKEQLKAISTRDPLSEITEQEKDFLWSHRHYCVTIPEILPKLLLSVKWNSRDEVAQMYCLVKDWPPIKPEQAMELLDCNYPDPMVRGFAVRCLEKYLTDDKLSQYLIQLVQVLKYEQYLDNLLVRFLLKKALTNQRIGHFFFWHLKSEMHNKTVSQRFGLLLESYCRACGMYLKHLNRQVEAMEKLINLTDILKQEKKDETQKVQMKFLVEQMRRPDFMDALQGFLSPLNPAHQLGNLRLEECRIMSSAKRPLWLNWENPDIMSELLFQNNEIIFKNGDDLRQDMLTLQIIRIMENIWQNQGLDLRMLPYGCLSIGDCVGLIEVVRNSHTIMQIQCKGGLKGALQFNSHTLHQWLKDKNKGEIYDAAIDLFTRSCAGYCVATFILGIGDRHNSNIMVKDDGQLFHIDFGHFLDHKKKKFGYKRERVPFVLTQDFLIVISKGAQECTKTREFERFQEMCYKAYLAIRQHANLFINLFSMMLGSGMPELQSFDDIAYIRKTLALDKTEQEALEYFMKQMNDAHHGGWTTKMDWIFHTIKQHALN
Chain of recombinant PI3 kinase α (P27986 whole entry partner): as the sequence (P27986 whole entry partner) above

Row | Compound | pIC50 (recombinant PI3 kinase α) | pIC50 (recombinant PI3 kinase γ) | pIC50 (recombinant PI3 kinase δ) | pIC50 [1] | IC50 (recombinant PI3 kinase α; read-out: PI3 Kinase Inhibition IC50 values at stated Isozyme (nM) α) | IC50 (recombinant PI3 kinase γ; read-out: PI3 Kinase Inhibition IC50 values at stated Isozyme (nM) γ) | IC50 (recombinant PI3 kinase δ; read-out: PI3 Kinase Inhibition IC50 values at stated Isozyme (nM) δ) | IC50 ([1]; read-out: Cellular Activity IC50 values (H2O2 induced pAkt (nM) D-U937 Cells)) | Cell Viability MTT Assay in D-U937 cells at 4 hr [2] | Cell Viability MTT Assay in D-U937 cells at 24 hr [2]
1 | NC(=O)NCC#Cc1cccc2nc(Cn3nc(-c4ccc(O)cc4)c4c(N)ncnc43)n(Cc3ccccc3Cl)c(=O)c12 [Example 49, 1-(3-(2-((4-Amino-3-(4-hydroxyphenyl)-1H-pyrazolo[3,4-d]pyrimidin-1-yl)methyl)-3-(2-chlorobenzyl)-4-oxo-3,4-dihydroquinazolin-5-yl)prop-2-ynyl)urea] | 6.00 to 7.30 | 6.00 to 7.30 | > 7.30 | > 8.00 | – | – | – | – | − (− <30%) | − (− <30%)
2 | Nc1ncnc2c1c(-c1ccc(O)cc1)nn2Cc1nc2cccc(C#CCCCC(=O)N3CCOCC3)c2c(=O)n1Cc1cc2ccccc2s1 [Example 63, 2-((4-Amino-3-(4-hydroxyphenyl)-1H-pyrazolo[3,4-d]pyrimidin-1-yl)methyl)-3-(benzo[b]thiophen-2-ylmethyl)-5-(6-morpholino-6-oxohex-1-yn-1-yl)quinazolin-4(3H)-one] | 6.00 to 7.30 | > 7.30 | > 7.30 | > 8.00 | – | – | – | – | − (− <30%) | − (− <30%)
3 | COc1cc(-c2nn(Cc3nc4cccc(C#CCCCC(=O)N5CCOCC5)c4c(=O)n3Cc3ccccc3Cl)c3ncnc(N)c23)ccc1O [Example 95, 2-((4-Amino-3-(4-hydroxy-3-methoxyphenyl)-1H-pyrazolo[3,4-d]pyrimidin-1-yl)methyl)-3-(2-chlorobenzyl)-5-(6-morpholino-6-oxohex-1-ynyl)quinazolin-4(3H)-one] | 6.00 to 7.30 | > 7.30 | > 7.30 | > 8.00 | – | – | – | – | − (− <30%) | − (− <30%)
4 | COCC#Cc1cccc2nc(Cn3nc(-c4ccc(O)cc4)c4c(N)ncnc43)n(Cc3cccc(OC)c3)c(=O)c12 [Example 27, 2-((4-Amino-3-(4-hydroxyphenyl)-1H-pyrazolo[3,4-d]pyrimidin-1-yl)methyl)-3-(3-methoxybenzyl)-5-(3-methoxyprop-1-ynyl)quinazolin-4(3H)-one] | 6.00 to 7.30 | 6.00 to 7.30 | > 7.30 | > 8.00 | – | – | – | – | − (− <30%) | − (− <30%)
5 | COCC#Cc1cccc2nc(Cn3nc(-c4ccc(O)cc4)c4c(N)ncnc43)n(Cc3ccccc3Cl)c(=O)c12 [Example 28, 2-((4-Amino-3-(4-hydroxyphenyl)-1H-pyrazolo[3,4-d]pyrimidin-1-yl)methyl)-3-(2-chlorobenzyl)-5-(3-methoxyprop-1-ynyl)quinazolin-4(3H)-one] | 6.00 to 7.30 | 6.00 to 7.30 | > 7.30 | > 8.00 | – | – | – | – | − (− <30%) | − (− <30%)
6 | C#Cc1cccc2nc(Cn3nc(-c4ccc(O)cc4)c4c(N)ncnc43)n(Cc3ccc(OC)cc3)c(=O)c12 [Example 46, 2-((4-Amino-3-(4-hydroxyphenyl)-1H-pyrazolo[3,4-d]pyrimidin-1-yl)methyl)-5-ethynyl-3-(4-methoxybenzyl)quinazolin-4(3H)-one] | 6.00 to 7.30 | 6.00 to 7.30 | > 7.30 | > 8.00 | – | – | – | – | − (− <30%) | − (− <30%)
7 | Nc1ncnc2c1c(-c1ccc(O)cc1)nn2Cc1nc2cccc(C#CCCCC(=O)NCCN3CCOCC3)c2c(=O)n1Cc1ccccc1Cl [Example 76, 6-(2-((4-Amino-3-(4-hydroxyphenyl)-1H-pyrazolo[3,4-d]pyrimidin-1-yl)methyl)-3-(2-chlorobenzyl)-4-oxo-3,4-dihydroquinazolin-5-yl)-N-(2-morpholinoethyl)hex-5-ynamide] | 6.00 to 7.30 | > 7.30 | > 7.30 | > 8.00 | – | – | – | – | − (− <30%) | − (− <30%)

Further lines, with some results ahead:

Row | pIC50 (recombinant PI3 kinase α) | pIC50 (recombinant PI3 kinase γ) | pIC50 (recombinant PI3 kinase δ) | pIC50 [1] | IC50 (recombinant PI3 kinase α; read-out: PI3 Kinase Inhibition IC50 values at stated Isozyme (nM) α) | IC50 (recombinant PI3 kinase γ; read-out: PI3 Kinase Inhibition IC50 values at stated Isozyme (nM) γ) | IC50 (recombinant PI3 kinase δ; read-out: PI3 Kinase Inhibition IC50 values at stated Isozyme (nM) δ) | IC50 ([1]; read-out: Cellular Activity IC50 values (H2O2 induced pAkt (nM) D-U937 Cells)) | Compound | Cell Viability MTT Assay in D-U937 cells at 4 hr [2] | Cell Viability MTT Assay in D-U937 cells at 24 hr [2]
8 | 6.00 to 7.30 | 6.00 to 7.30 | > 7.30 | > 8.00 | – | – | – | – | C#Cc1cccc2nc(Cn3nc(-c4ccc(O)cc4)c4c(N)ncnc43)n(Cc3ccc(Cl)cc3F)c(=O)c12 [Example 35, 2-((4-Amino-3-(4-hydroxyphenyl)-1H-pyrazolo[3,4-d]pyrimidin-1-yl)methyl)-3-(4-chloro-2-fluorobenzyl)-5-ethynylquinazolin-4(3H)-one] | − (− <30%) | − (− <30%)
9 | > 7.30 | > 7.30 | > 7.30 | > 8.00 | 27 nM | 22 nM | 36 nM | 0.41 nM | CC(C)NC(=O)CCCC#Cc1cccc2nc(Cn3nc(-c4ccc(O)cc4)c4c(N)ncnc43)n(Cc3ccccc3Cl)c(=O)c12 [Example 86, 6-(2-((4-Amino-3-(4-hydroxyphenyl)-1H-pyrazolo[3,4-d]pyrimidin-1-yl)methyl)-3-(2-chlorobenzyl)-4-oxo-3,4-dihydroquinazolin-5-yl)-N-isopropylhex-5-ynamide] | − (− <30%) | − (− <30%)
10 | 6.00 to 7.30 | > 7.30 | > 7.30 | > 8.00 | – | – | – | – | Cn1cc(Cn2c(Cn3nc(-c4cccc(O)c4)c4c(N)ncnc43)nc3cccc(C#CCCCC(=O)N4CCOCC4)c3c2=O)cn1 [Example 66] | − (− <30%) | + (+ >30%)
11 | 6.00 to 7.30 | > 7.30 | > 7.30 | > 8.00 | – | – | – | – | Cc1nc(Cn2c(Cn3nc(-c4cccc(O)c4)c4c(N)ncnc43)nc3cccc(C#CCCCC(=O)N4CCOCC4)c3c2=O)cs1 [Example 68, 2-((4-Amino-3-(3-hydroxyphenyl)-1H-pyrazolo[3,4-d]pyrimidin-1-yl)methyl)-3-((2-methylthiazol-4-yl)methyl)-5-(6-morpholino-6-oxohex-1-yn-1-yl)quinazolin-4(3H)-one] | − (− <30%) | − (− <30%)
12 | > 7.30 | > 7.30 | > 7.30 | > 8.00 | – | – | – | – | Nc1ncnc2c1c(-c1cccc(O)c1)nn2Cc1nc2cccc(C#CCCCC(=O)N3CCOCC3)c2c(=O)n1Cc1ccccc1Cl [Example 3, 2-((4-Amino-3-(3-hydroxyphenyl)-1H-pyrazolo[3,4-d]pyrimidin-1-yl)methyl)-3-(2-chlorobenzyl)-5-(6-morpholino-6-oxohex-1-yn-1-yl)quinazolin-4(3H)-one] | − (− <30%) | − (− <30%)
13 | > 7.30 | > 7.30 | > 7.30 | > 8.00 | – | – | – | – | Nc1ncnc2c1c(-c1ccc(O)cc1)nn2Cc1nc2cccc(C#CCCCC(=O)N3CCOCC3)c2c(=O)n1Cc1ccccc1F [Example 53, 2-((4-Amino-3-(4-hydroxyphenyl)-1H-pyrazolo[3,4-d]pyrimidin-1-yl)methyl)-3-(2-fluorobenzyl)-5-(6-morpholino-6-oxohex-1-yn-1-yl)quinazolin-4(3H)-one] | − (− <30%) | − (− <30%)
